This is an account of results in PMC7297445, “Pharmacokinetic/Pharmacodynamic Determination and Preclinical Pharmacokinetics of the β-Lactamase Inhibitor ETX1317 and Its Orally Available Prodrug ETX0282” (ACS Infectious Diseases, 2020).

Molecules are shown by their SMILES. ≈ marks a conversion by molar mass, not a printed value.

One may read the MIC as the lowest concentration that inhibits growth of the organism.

For data set [1] the following is noted: cited from earlier work.
Data set [2] is described as follows: Plasma protein binding. The class given is in vitro ADME, mouse. To be noted: mouse plasma; read-out: percent unbound. The procedure:
Plasma protein binding was determined by rapid equilibrium dialysis. Plasma was freshly prepared from blood samples drawn in to EDTA (anticoagulant) containing tubes. Plasma was prepared using a table-top centrifuge and spun per instruction of the tube manufacturer and specifications (Beckton, Dickinson and Company, Franklin Lakes, NJ) and placed on ice prior to use.
Pooled plasma samples were centrifuged at 2000 rpm (approximately 1400g) for 15 min at 4 °C to remove debris. Approximately 90% of the clear supernatant fraction was transferred to a separate tube. Samples (500 μL) were then spiked with a 100× stock solution 100 μM, 0.5 mM, and 10 mM ETX1317 in DMSO respectively for 1, 5, and 100 μM final concentrations, transferred to the top of the filter chambers, and allowed to equilibrate for 15 min prior to centrifugation. The filtrate tubes were centrifuged at 14000g for 15 min at 4 °C. Next, 50 μL of the filtrate was precipitated with 300 μL of acetonitrile containing 250 ng/mL of carbutamide as the internal standard and the samples were analyzed by LC/MS/MS analysis.

Data set [3] concerns Enterobacteriaceae isolates. The data set can be described thus: Hollow-fiber and chemostat models, strains combined. The data set is classed as cell-based, E. coli, K. pneumoniae. To be noted: infused alone, both models. The procedure:
The PK/PD driver of ETX1317 was assessed in the presence of CPD in both hollow-fiber[28]−[31] and chemostat[32]in vitro infection model systems. In all cases, CPD was administered q12h via a 2 h infusion and eliminated with a 2 h half-life, with the concentration of drug exceeding the MIC (the MIC of CPD in the presence of ETX1317 at a 1:2 ratio) for 50% of the dosing interval for each strain. Representative Emax plots are shown graphically for Escherichia coli ARC2687 in the hollow-fiber model and Klebsiella pneumoniae ARC4420 in the chemostat system (Figure 2). […] This could partially be attributed to the distribution of the concentration ranges utilized for the hollow-fiber infection model (HFIM) where most of the data scatter occurred in the efficacious dose range for lower MIC strains. It is important to note that initial evaluation of K. pneumoniae ARC4420 and ARC5118 was completed in the HFIM but rapid degradation of CPD, presumably through accumulation of β-lactamases in the extra-capillary space of the cartridge precluded a reliable assessment of the PK/PD driver with these strains in this model.[32] […] In both the HFIM and chemostat models the optimum critical threshold of ETX1317 was established through iterative Emax fitting of a range of ETX1317 concentrations from 0.5× to 2× the CPD:ETX1317 MIC value. In the HFIM, %Time > ETX1317 CT of 2× MIC provided the highest correlation to observed activity which appeared to be independent to the apparent intrinsic activity of ETX1317 (as reflected by ETX1317 MICBLI of K. pneumoniae ARC4486 vs ARC4488). […] In both models CPD infused alone mimicked vehicle control as expected with similar growth of +2 to 4 log10 CFU/mL.
PK/PD-derived exposure targets for BLIs have utilized various approaches for clinical dose setting. The use of a singular critical threshold value independent of MIC has been used for recent BL/BLI combinations such as ceftazidime/avibactam[34] aztreonam/avibactam,[35] but this has been problematic to correlate activity across a broad range of MICs. More recent work with ceftolozane/tazobactam[36] and other BLI combinations[37],[38] considers a critical threshold value that varies proportionally to the MIC value. […] Convergence of the data to a threshold value related to MIC simplifies dose setting and, in this case, appears to be consistent across a broad range of susceptibility (0.125–1 μg/mL).
Dose range and dose fractionation were performed in hollow-fiber infection model (HFIM) and chemostat (one-compartment) in vitro infection model. […] CPD concentrations were targeted to achieve exposure of ∼50%Time > MIC determined in the presence of ETX1317. […] Bacterial burden (CFU/mL) was serially assessed by sampling (500 μL) from the extra-capillary space of the HFIM cartridge at predetermined time points. […]

The test system of data set [4] is E. coli strain (ATCC 25922). The data set can be described thus: MIC. The conditions noted are these: Escherichia coli, ATCC25922; susceptible strain. The class given is cell-based. The text has this:
All in vivo efficacy studies were supported with PK of ETX1317 and CPD following oral administration of ETX0282 and CPDP. For the purposes of understanding the exposure-PD response relationship, total systemic concentrations of ETX1317 and cefpodoxime were normalized to unbound drug levels after accounting for protein binding with percent unbound estimates of 93% and 66%, respectively, in mouse plasma (Table S2). An in vivo dose range study with CPDP administered alone against a susceptible E. coli strain (ATCC 25922, CPD MIC = 0.5 μg/mL) was completed initially in a murine neutropenic thigh model to confirm its PK/PD target. In this study a 50 mg/kg oral dose of CPDP administered q6h was consistent with achieving 1–log kill over 24 h. […] Oral exposure was generally dose proportional to 50 mg/kg; however, it became less than dose proportional at ≥200 mg/kg.
(§1) The MIC of each isolate was determined using the broth microdilution method following CLSI guidelines of document M07-A7 (CLSI M07-A7).

For data set [5], the system named is E. coli ARC4419. The data set can be described thus: MIC, broth microdilution (CLSI). To be noted: Escherichia coli, combination at 1:2 ratio cefpodoxime:ETX1317, MIC of CPD. The class given is cell-based. The protocol: (§2) MICs were determined utilizing a 1:2 ratio of cefpodoxime:ETX1317. […] The isolates utilized in the present study (Table 1) were broadly insensitive to CPD, presumably due to the presence of ESBLs and carbapenemases expressed in these strains. The addition of ETX1317 restored CPD activity to ≤1 μg/mL across all the tested isolates.
as §1
For orientation: Broth dilution looks for growth in wells or tubes with falling amounts of substance.

For data set [6], the system named is E. coli NMC101. The data set can be described thus: MIC, broth microdilution (CLSI). The data set is classed as cell-based. To be noted: Escherichia coli, combination at 1:2 ratio cefpodoxime:ETX1317, MIC of CPD. The protocol:
as §2, §1

Data set [7] concerns K. pneumoniae ARC4486. The data set can be described thus: MIC, broth microdilution (CLSI). The data set is classed as cell-based. The conditions noted are these: Klebsiella pneumoniae, combination at 1:2 ratio cefpodoxime:ETX1317, MIC of CPD. The procedure:
as §2, §1

Data set [8] has as its system E. coli ARC2687. The data set can be described thus: MIC, broth microdilution (CLSI). The data set is classed as cell-based. The procedure: as §2, §1
Data set [9] concerns K. pneumoniae ARC4488. The data set can be described thus: MIC, broth microdilution (CLSI). The class given is cell-based. The procedure:
as §2, §1

Data set [10] relates to K. pneumoniae ARC4420. The data set can be described thus: MIC, broth microdilution (CLSI). The data set is classed as cell-based. The conditions noted are these: Klebsiella pneumoniae, combination at 1:2 ratio cefpodoxime:ETX1317, MIC of CPD. The procedure: as §2, §1
The test system of data set [11] is K. pneumoniae ARC5118. The data set can be described thus: MIC, broth microdilution (CLSI). The data set is classed as cell-based. The protocol:
as §2, §1

For data set [12], the system named is E. coli ARC2687. The data set can be described thus: Murine neutropenic thigh infection model. The data set is classed as in vivo, mouse. The procedure: (§3) In vivo neutropenic infection models in the mouse were conducted as previously described.[48],[49] All procedures were performed to Entasis approved IACUC policies and guidelines as well as OLAW standards. Briefly, Female CD-1 mice (20–22 g, Charles River Laboratories) were acclimated for 5 days prior to start of study. Animals were housed 3 per cage with free access to food and water. Mice were rendered neutropenic via two doses of cyclophosphamide on days −4 and −1 with 150 mg/kg and 100 mg/kg delivered intraperitoneally in a dose volume of 10 mL/kg, respectively.[48]
(§4) Enterobacteriaceae isolates ARC2687, ARC4488, ARC5118, NMC101, and ARC4419 were prepared for infection from an overnight plate culture. A portion of the plate was resuspended in sterile saline and adjusted to an OD of 0.1 at 625 nm. The adjusted bacterial suspension was further diluted to target an infecting inoculum of approximately 5.0 × 10^6–1.0 × 10^7 CFU/mouse. The actual inoculum size varied between 5.5 × 10^6–1.6 × 10^6 CFU/thigh and administered via intramuscular injection of (100 μL). Plate counts of the inoculum were performed to confirm inoculum concentration and treatment was initiated 2 h after bacterial challenge.
(§5) ETX0282 and CPDP were formulated in 0.5% HPMC/0.1% Tween 80 suspension. meropenem (utilized as a positive control) was solubilized in water for injection. All studies utilized a meropenem dosed at 600 mg/kg q6h subcutaneously as positive control against meropenem sensitive isolates (MIC ≤ 2 μg/mL) and as a negative control against meropenem resistant isolates. For dose arms utilizing a combination of ETX0282 and CPDP, both agents were reconstituted in the same vehicle. All dose concentrations were adjusted to deliver targeted mg/kg doses within a dose volume of 10 mL/kg. Formulation potency was verified by LC/MS/MS.
(§6) ETX0282 and CPDP were administered via q6h dose intervals in order to achieve targeted unbound exposures. At 24 h post initiation of therapy, animals were euthanized, tissue samples aseptically collected and homogenized. Bacterial colony enumeration of tissue homogenate was performed by serial dilution on TSA plates which were incubated overnight at 35 °C prior to colony (CFU) counting.

In data set [13] the test system is K. pneumoniae ARC5118. The data set can be described thus: Murine neutropenic thigh infection model. The data set is classed as in vivo, mouse. The procedure:
as §3, §4, §5, §6

Data set [14] relates to E. coli ARC4419. The data set can be described thus: Murine neutropenic thigh infection model. To be noted: 600 mg/kg s.c./q6h. The class given is in vivo, mouse. The procedure: (§7) To further understand whether this in vitro activity translated to in vivo efficacy, an additional neutropenic thigh study was conducted in mice with increasing doses of ETX0282 alone vs E. coli NMC101 (ETX1317 MICBLI = 1 μg/mL) and ARC4419 (ETX1317 MICBLI = 0.25 μg/mL). […] Despite the significant exposure of ETX1317, a 200 mg/kg q6h dose of ETX0282 alone was ineffective for both strains (Table 6).
as §3, §4, §5, §6

Data set [15] has as its system E. coli NMC101. The data set can be described thus: Murine neutropenic thigh infection model. The class given is in vivo, mouse. To be noted: 600 mg/kg s.c./q6h. The protocol:
as §7, §3, §4, §5, §6

[16] abbreviates: q6h, 24 h, cidal = ≥1 log10 CFU/g reduction.

In the case of `COCC1=C(C(=O)O)N2C(=O)[C@@H](NC(=O)/C(=N\OC)c3csc(N)n3)[C@H]2SC1` [cefpodoxime], in data set [1] (400 mg q12h (800 mg/day)), the “% of dosing interval with mean unbound concentrations exceeding at least 0.5 μg/mL” value is reported as “greater than 50%”. Besides, the half-life in humans in data set [1] (humans) is reported as 2 h. Moreover, the F% result in data set [1] (oral proxetil ester prodrug, top dose 400 mg q12h) is recorded as “≈ 50%”. The fraction unbound at 15 min in [2] is 0.66. In addition, in data set [3], the growth entry was “+2 to 4 log10 CFU/mL”. Moreover, the MIC was 0.5 µg/mL (≈ 1.17 µM) in data set [4]; 64 µg/mL in data set [5]; > 64 µg/mL in data set [6]; > 64 µg/mL in [7]; > 64 µg/mL in data set [8] (Escherichia coli, ARC2687, combination at 1:2 ratio cefpodoxime:ETX1317, MIC of CPD); > 64 µg/mL in [9] (Klebsiella pneumoniae, ARC4488, combination at 1:2 ratio cefpodoxime:ETX1317, MIC of CPD). Besides, the MIC in [10] was > 64 µg/mL; in data set [11] (Klebsiella pneumoniae, ARC5118, combination at 1:2 ratio cefpodoxime:ETX1317, MIC of CPD), > 64 µg/mL.

As for `C[C@@H](O)[C@H]1C(=O)N2C(C(=O)O)=C(S[C@@H]3CN[C@H](C(=O)N(C)C)C3)[C@H](C)[C@H]12` [meropenem], the “log10 CFU/g thigh change 24 h post therapy initiation” value is reported as “–1.46 log10 CFU/g” in data set [12] (600 mg/kg s.c./q6h), “+2.04 log10 CFU/g” in data set [13] (600 mg/kg s.c./q6h), “–2.19 log10 CFU/g” in data set [14] and “–1.36 log10 CFU/g” in [15]. The entries for the “in vivo efficacy in words” value in data set [12] (setting [16]) and in [13] (setting [16]) were “cidal activity” and “not against K. pneumoniae ARC5118”, respectively. Besides, the values for the susceptibility to meropenem entry in data set [8] (ESBL producer), in [9] (ESBL producer) and in data set [11] (KPC-producing isolate) were “maintain susceptibility to meropenem”, “maintain susceptibility to meropenem” and “resistant to meropenem”, respectively.
